The subject of the assay is Tetranychus urticae (Two-Spotted Spider Mite). Briefly: Tetranychus urticae (two-spotted spider mite) feeding/contact activity. The class given is in vivo. The note with it: foliar, 192 h, application rate 200 ppm, sprayed bean leaf discs, mite population of mixed ages (mobile stages), 8 days after infestation. On the procedure: Example B9: Tetranychus urticae (Two-Spotted Spider Mite): Feeding/Contact Activity
Bean leaf discs on agar in 24-well microtiter plates were sprayed with aqueous test solutions prepared from 10,000 ppm DMSO stock solutions. After drying the leaf discs were infested with a mite population of mixed ages. The samples were assessed for mortality on mixed population (mobile stages) 8 days after infestation.

For 1 molecule, mortality results are on record in patent US20260206751A1, “NOVEL BICYCLIC-CARBOXAMIDE COMPOUNDS USEFUL AS PESTICIDES” (SYNGENTA CROP PROTECTION AG, priority 2022, published 2026).

Where only a bound is given, the exact number is not on record here.

As a reminder, the mortality is the percentage killed.

Molecule `Cc1c(OC[C@H](C)NS(=O)(=O)C(Cl)Cl)cc(C(=O)NC2CC2)c2c1CCC2` [P-34, N-cyclopropyl-6-[(2S)-2-(dichloromethylsulfonylamino)propoxy]-7-methyl-indane-4-carboxamide] showed a mortality at 200 ppm of no less than 80%.
